Experimental data published in patent US20240400518A1, “SOS1 INHIBITOR AND USE THEREOF” (KANAPH THERAPEUTICS INC., priority 2021, published 2024).

Experiments:
[1] = molecular target: T1, SOS1 (Homo sapiens, UniProt Q07889); experiment: SOS-catalyzed nucleotide exchange assay (HTRF, SOS1-mediated GTP loading of KRAS G12D); type: biochemical; details: GST-KRAS G12D, HIS-SOS1cat, IC50 class
T1 construct: adding equal amounts of HIS—SOS1cat (160 nM; Cytoskeleton, US); His (N); purchased Cytoskeleton, US
T1 sequence (Q07889 564-1049 limits assumed): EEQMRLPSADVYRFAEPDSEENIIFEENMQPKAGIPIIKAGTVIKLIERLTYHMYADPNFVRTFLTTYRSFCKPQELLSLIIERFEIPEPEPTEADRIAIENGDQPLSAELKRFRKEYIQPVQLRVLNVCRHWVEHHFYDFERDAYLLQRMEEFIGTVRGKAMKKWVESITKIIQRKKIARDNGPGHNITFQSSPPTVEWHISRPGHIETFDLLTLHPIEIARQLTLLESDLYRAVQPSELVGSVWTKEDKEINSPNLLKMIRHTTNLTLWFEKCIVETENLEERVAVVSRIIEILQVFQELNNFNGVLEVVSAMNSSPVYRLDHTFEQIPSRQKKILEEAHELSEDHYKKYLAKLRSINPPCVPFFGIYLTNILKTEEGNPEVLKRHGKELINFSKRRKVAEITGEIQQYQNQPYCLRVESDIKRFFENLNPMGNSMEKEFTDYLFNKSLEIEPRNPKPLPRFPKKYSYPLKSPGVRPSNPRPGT
Protocol: SOS1 activity was measured by SOS1-mediated GTP loading quantification of KRAS^G12D. GTP loaded KRAS^G12D was detected by HTRF (Homogeneous Time Resolved Fluorescence) using anti-GST terbium (Cisbio, France) as a donor and a fluorescence GTP analogue (EDA-GTP-DY-647P1, [DY-647P1 labeled 2′/3′-O-(2-aminoethyl-carbamoyl)guanosine-5′-triphosphate (Jena bioscience, Germany)]) as an acceptor.
Assay buffer was composed of 10 mM HEPES pH 7.4, 150 mM NaCl, 5 mM MgCl2, 1 mM DTT, 0.05% BSA Fraction V pH 7.0 (Sigma) and 0.0025% (v/v) Igepal (Sigma). KRAS^G12D working solution was prepared by adding equal amounts of GST-KRAS^G12D (100 nM) and anti-GST-terbium (2 nM; Cisbio, France) to the assay buffer and culturing on ice for 10 minutes. SOS1cat working solution was prepared by adding equal amounts of HIS—SOS1cat (160 nM; Cytoskeleton, US) and EDA-GTP-DY-647P1 (200 nM; Jena bioscience, Germany) to the assay buffer. Control solution was prepared by adding equal volumes of EDA-GTP-DY-647P1 and the assay buffer for normalization control to exclude GEF-independent GTP loading and background signals. In order to induce a reaction, 5 μL of the SOS1cat working solution or the control solution was injected into each well. 5 μL of a compound having various concentrations from 128 pM to 10 μM was added to wells containing the SOS1cat working solution and incubated at room temperature for 10 minutes to bind to SOS1.
10 μL of the KRAS^G12D solution was added to each well and incubated for 30 minutes at room temperature while shaking. HTRF was measured using a Thermo Varioskan (excitation 334 nm, emission 665 nm). The IC50 of each inhibitor was analyzed using Graphad Prism.

[2] = molecular target: T2, KRAS^G12C::SOS1 (Homo sapiens, UniProt Q07889); experiment: KRAS G12C::SOS1 protein-protein interaction (PPI) inhibition assay (HTRF binding kit); details: max inhibitor concentration 3 μM, three replicates, IC50 class
T2 construct: purchased CISBIO, FRANCE 64KRASG12PEH
T2 sequence (Q07889 1-1333): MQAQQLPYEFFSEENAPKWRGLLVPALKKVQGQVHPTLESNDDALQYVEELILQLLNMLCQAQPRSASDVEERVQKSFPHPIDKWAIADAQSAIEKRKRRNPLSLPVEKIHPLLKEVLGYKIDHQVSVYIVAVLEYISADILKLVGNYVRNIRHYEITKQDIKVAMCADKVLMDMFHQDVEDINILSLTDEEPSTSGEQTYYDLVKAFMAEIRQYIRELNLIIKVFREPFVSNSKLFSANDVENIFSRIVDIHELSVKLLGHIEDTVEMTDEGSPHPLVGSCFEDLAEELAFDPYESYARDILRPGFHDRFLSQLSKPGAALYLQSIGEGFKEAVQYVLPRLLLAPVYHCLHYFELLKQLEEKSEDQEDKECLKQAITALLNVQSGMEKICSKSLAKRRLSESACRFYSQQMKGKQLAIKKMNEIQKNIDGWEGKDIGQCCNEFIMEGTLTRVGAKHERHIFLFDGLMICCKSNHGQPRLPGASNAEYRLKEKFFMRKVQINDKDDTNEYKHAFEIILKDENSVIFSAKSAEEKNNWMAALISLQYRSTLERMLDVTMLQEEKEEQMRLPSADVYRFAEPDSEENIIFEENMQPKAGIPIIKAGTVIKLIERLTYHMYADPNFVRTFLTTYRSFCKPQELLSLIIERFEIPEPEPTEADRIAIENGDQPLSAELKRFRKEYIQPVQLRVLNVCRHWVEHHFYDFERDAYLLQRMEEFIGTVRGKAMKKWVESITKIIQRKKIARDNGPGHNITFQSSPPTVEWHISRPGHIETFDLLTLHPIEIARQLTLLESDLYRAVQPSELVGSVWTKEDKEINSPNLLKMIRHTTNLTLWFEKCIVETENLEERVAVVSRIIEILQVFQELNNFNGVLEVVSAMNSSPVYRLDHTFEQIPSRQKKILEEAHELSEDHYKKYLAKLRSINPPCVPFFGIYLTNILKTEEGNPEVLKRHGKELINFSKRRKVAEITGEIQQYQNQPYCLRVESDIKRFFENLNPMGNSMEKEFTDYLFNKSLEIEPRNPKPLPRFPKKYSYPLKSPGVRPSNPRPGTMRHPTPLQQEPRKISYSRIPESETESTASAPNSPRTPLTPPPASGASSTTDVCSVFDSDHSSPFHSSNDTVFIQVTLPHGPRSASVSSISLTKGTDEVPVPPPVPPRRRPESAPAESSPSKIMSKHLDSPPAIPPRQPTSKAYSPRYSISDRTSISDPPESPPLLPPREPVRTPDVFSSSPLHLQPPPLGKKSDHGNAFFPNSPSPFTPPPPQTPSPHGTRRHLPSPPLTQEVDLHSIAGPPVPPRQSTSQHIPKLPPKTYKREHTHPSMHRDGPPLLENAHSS
Protocol: Protein-protein interaction between SOS1 and KRAS^G12C was detected using KRAS G12C/SOS1 binding kit from CISBIO (64KRASG12PEH, CISBIO, FRANCE) according to the manufacturer's assay method. Briefly, the maximum concentration of an inhibitor sample was set to be 3 μM, and the inhibitor sample was diluted 7 times by 1/3, and samples having a total of 8 concentrations were prepared. In HTRF (Homogeneous Time-Resolved Fluorescence) exclusive 96-well low-volume white plate (66PL96005, CISBIO, FRANCE), 2 μL of an inhibitor sample prepared for each concentration, 5 μL of a mixed solution of Tag1 labeled KRAS^G12C protein and GTP diluted with the dilution solution provided by the manufacturer, and 5 μL of Tag2 labeled SOS1 protein were mixed, and added with 8 μL of a diluted solution where anti-Tag1 KRAS^G12CXL665 (HTRF acceptor) labeled antibody and anti-Tag2 SOS1 Terbium cryptate (HTRF donor) labeled antibody were mixed in an equal ratio and cultured at room temperature for 2 hours.

IC50 [1] | IC50 [2] | Compound
1 to 10 µM | < 1 µM | C[C@@H](NC(=O)c1ccc(=O)n(-c2ccc(OC(F)(F)F)cc2)n1)c1cc(N)cc(C(F)(F)F)c1 [Example 154]
1 to 10 µM | – | CC(=O)N1CCC(n2nc(C(=O)N[C@H](C)c3cc(N)cc(C(F)(F)F)c3)ccc2=O)CC1 [Example 118, 1-(1-acetylpiperidin-4-yl)-N-[(1R)-1-[3-amino-5-(trifluoromethyl)phenyl]ethyl]-6-oxo-1,6-dihydropyridazine-3-carboxamide]
1 to 10 µM | – | C[C@@H](NC(=O)c1ccc(=O)n(-c2ccc(-c3ccccc3)cc2)n1)c1cc(N)cc(C(F)(F)F)c1 [Example 24]
